Reference: patent US20240336625A1, “SULFONIMIDAMDE COMPOUNDS AND USES THEREOF” (Genentech, Inc., priority 2021, published 2024)
Where two headings read alike, the source gives them in different places.

Legend:
[1] = test system: NLRP3 inflammasome pathway; assay: Human Whole Blood Assay (IL-1β release, LPS + ATP); type: cell-based; details: read-out: HWB IC90
Protocol: The ability of selected compounds to inhibit IL-1beta production in human blood was assessed in a human whole blood assay with lipopolysaccharide.
Fresh human whole blood (HWB) was obtained from healthy donors. […] At the end of stimulation, the plates were centrifuged 2 min×3000 rpm, and supernatant transferred into fresh plates and stored at −80° C. until IL-1β analysis. IL-1b levels were measured using electrochemiluminescence immunoassay with an anti-IL-1b antibody as a primary detection agent.

hPXR nuclear receptor = biological target: T1, hPXR nuclear receptor (Homo sapiens, UniProt O75469); assay: PXR Activation Assay; type: cell-based; details: relative to positive control (rifampicin)
T1 construct: expressed in transfected cells
T1 sequence (O75469 1-434): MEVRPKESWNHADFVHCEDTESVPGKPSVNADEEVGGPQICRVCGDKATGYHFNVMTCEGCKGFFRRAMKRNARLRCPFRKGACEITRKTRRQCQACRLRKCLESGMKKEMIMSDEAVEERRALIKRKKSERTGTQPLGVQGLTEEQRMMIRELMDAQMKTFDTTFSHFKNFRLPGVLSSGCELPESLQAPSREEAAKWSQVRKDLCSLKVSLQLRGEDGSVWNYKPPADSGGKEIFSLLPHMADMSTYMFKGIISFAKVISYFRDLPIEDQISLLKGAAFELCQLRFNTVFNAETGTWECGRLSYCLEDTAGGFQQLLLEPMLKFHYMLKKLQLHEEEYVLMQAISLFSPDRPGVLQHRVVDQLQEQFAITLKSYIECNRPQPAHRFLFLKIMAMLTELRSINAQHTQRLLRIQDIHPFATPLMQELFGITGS
Protocol: Hepatoma cells either expressing an endogenous human […] or transfected with the hPXR nuclear receptor and the corresponding response elements were seeded in a 96-well plate. Twenty-four hours after seeding, the cells were treated with six distinct concentrations of test compounds in duplicate wells, and cells then returned to the incubator for an additional 24 h. At the end of this incubation period, the number of viable cells/well was determined using Promega's Cell Titer Fluor cytotoxicity assay. Following this assay, Promega's ONE-Glo was added to the same wells and reporter gene activity assessed.
Data processed using MS-Excel was provided as the mean (n=2) of the fold receptor activation relative to vehicle-treated cells at each of the six different doses. All activation data was normalized to the number of viable cells/well. Results were also expressed as a percentage of the response given by the appropriate positive control (rifampicin) at a 10 μM dose. EC50 and Emax values were derived for positive controls using nonlinear regression of log dose-response curves.

[2] = Rat Pharmacokinetic (PK) Studies; type: in vivo, Sprague-Dawley rats; details: male, Sprague-Dawley, plasma; for bioavailability: 1 mg/kg PO vs 0.5 mg/kg IV cassette dose
Protocol: Studies were performed at WuXi AppTech Co., Ltd (Shanghai, P.R. China). Food and water were available ad libitum except for animals that were dosed oral doses in pharmacokinetic (PK) studies, which were fasted overnight before dosing of test compounds. Six male Sprague-Dawley rats, aged 6-9 weeks with body weight of 200-300 g were obtained from Vital River Laboratory Animal Technology Co., Ltd., Beijing, P.R. China and were randomly allocated to two dose groups (3 rats were used for the IV group and 3 rats for the PO group). Animals in Group 1 were given a single IV bolus cassette dose of 0.5 mg/kg of test compounds at a dose volume of 1 mL/kg, formulated in DMSO/PEG400/Water (10/60/30). Animals in Group 2 were given a 1 mg/kg PO cassette dose of test compounds at a dose volume of 1 mL/kg, formulated in 0.5% Methyl cellulose/0.2% Tween 80 (MCT) as a suspension. Blood samples were collected via catheter at the femoral artery into tubes containing K2EDTA as an anticoagulant. Both groups were sampled at 0.033, 0.083, 0.25, 0.5, 1, 2, 4, 8 and 24 hours post-dose for blood. All samples were stored at −80° C. until analysis. The concentration of test compounds in each blood or plasma sample was determined by LC-MS/MS analysis.
PK parameters were calculated by noncompartmental methods as described in Gibaldi and Perrier (1982) using Phoenix™ WinNonlin (Certara, Princeton, NJ) version 8.3.4.295. Parameters are presented as mean±SD. Bioavailability (F) was determined by dividing the dose-normalized area under the plasma concentration-time curve from time 0 extrapolated to infinity (AUCinf) for each animals dosed orally by the dose-normalized mean AUCinf determined from the animals dosed intravenously.

[3] = test system: NLRP3 dependent inflammasome pathway; assay: THP-1 ASC-GFP Speck Assay; type: cell-based; details: THP1-ASC-GFP; THP-1 ASC-GFP cells, LPS primed, 10 μM nigericin
Protocol: Cell Culture: THP-1 ASC-GFP cell line is purchased from Invivogen, San Diego, for inflammasome activation assay. THP-1 ASC-GFP cells stably express a 37.6 kDa ASC::GFP fusion protein that enables monitoring of spec formation by microscopy after activation of NLRP3 dependent inflammasome pathway. Cells are maintained at a density of 600,000 cells/mL in growth media consisting of RPMI 1640, 2 mM L-glutamine, 25 mM HEPES and 10% heat inactivated fetal bovine serum at 37° C. and 5% CO2. Cells are passaged every 3-4 days and used for assays for up to 20 passages.
NLRP3 inflammasome activation assay: THP-1 ASC-GFP cells are collected by centrifuging cells at 800 RPM for 5 minutes. Cell culture supernatant is removed and cells are resuspended in fresh media at density of 1×10^6 cells/mL in assay media consisting of RPMI 1640, 2 mM L-glutamine, 25 mM HEPES and 10% heat inactivated fetal bovine serum.
Phorbol 12-myristate 13-acetate (PMA) (Invivogen, tlrl-pma) is added to the cell suspension at a final concentration of 500 ng/ml and mixed thoroughly. 40,000 cells are added per well of a 384 well plate and differentiated into macrophages overnight at 37° C. and 5% CO2. […]
Imaging ASC-GFP specks: THP-1 ASC-GFP cells are imaged in 488 and Hoechst channels. […] Percentage of cells with a spec is calculated by dividing the number of GFP positive spots by total number of cells.

[4] = Homo sapiens, LPS 200 ng/mL, ATP 1.75 mM, IL-1β
[5] = read-out: Rat Half Life (converted)

SMILES	IC90 [1, 4] [nM]	% PXR activation @ 10 μM (hPXR nuclear receptor) [%]	bioavailability [2] [%]	half-life [2, 5] [h]	half-life ([2]; read-out: half life) [h]	IC90 ([1]; LPS 200 ng/mL, ATP 1.75 mM, IL-1β) [nM]	IC90 ([1]; Homo sapiens) [nM]	IC50 [3] [nM]
CNC1COc2c(S(N)(=O)=NC(=O)Nc3c4c(c(F)c5c3CC5)CC4)cnn2C1 (stereo not shown) [XO]	110	3.3	32	1.3	< 1			
CC1(CO)Cn2ncc(S(N)(=O)=NC(=O)Nc3c4c(cc5c3CCC5)CCC4)c2O1 (stereo not shown) [XN]		6.2	36	1.2				
C[C@]1(CO)Cn2ncc([S@](N)(=O)=NC(=O)Nc3c4c(cc5c3CC5)CC4)c2O1 [Compound 2, (R,2R)-2-(hydroxymethyl)-2-methyl-N′-(tricyclo[6.2.0.0^3,6]deca-1,3(6), 7-trien-2-ylcarbamoyl)-2,3-dihydropyrazolo[5,1-b]oxazole-7-sulfonimidamide]	43		53	> 2			< 100	
C[C@]1(CO)Cn2ncc([S@](N)(=O)=NC(=O)Nc3c4c(cc5c3CC5)CC4)c2O1 [Compound A, (R,2R)-2-(hydroxymethyl)-2-methyl-N-(tricyclo[6.2.0.0^3,6]deca-1,3(6),7-trien-2-ylcarbamoyl)-2,3-dihydropyrazolo[5,1-b]oxazole-7-sulfonimidamide]								0.98
C[C@]1(CO)Cn2ncc([S@](N)(=O)=NC(=O)Nc3c4c(c(F)c5c3CC5)CC4)c2O1 [Compound 6, (R,2R)-N′-((7-fluorotricyclo[6.2.0.0^3,6]deca-1,3(6),7-trien-2-yl)carbamoyl)-2-(hydroxymethyl)-2-methyl-2,3-dihydropyrazolo[5,1-b]oxazole-7-sulfonimidamide]	55		48	1.8	> 1.5		< 100	
C[C@]1(CO)Cn2ncc([S@](N)(=O)=NC(=O)Nc3c4c(c(F)c5c3CC5)CC4)c2O1 (single isomer, unassigned) [Compound G]								1.1
CC1(C)Cn2ncc(S(N)(=O)=NC(=O)Nc3c4c(cc5c3CC5)CC4)c2O1 (stereo not shown) [XH]	130	81	85	1.9				
COC1CN(C2COc3c(S(N)(=O)=NC(=O)Nc4c5c(cc6c4CC6)CC5)cnn3C2)C1 (stereo not shown) [XP]	130		33	1.9				

Next, values leading:

IC90 [1, 4] [nM]	% PXR activation @ 10 μM (hPXR nuclear receptor) [%]	bioavailability [2] [%]	half-life [2, 5] [h]	half-life ([2]; read-out: half life) [h]	IC90 ([1]; LPS 200 ng/mL, ATP 1.75 mM, IL-1β) [nM]	IC90 ([1]; Homo sapiens) [nM]	IC50 [3] [nM]	SMILES
3400	26							NS(=O)(=NC(=O)Nc1c2c(cc3c1CC3)CCC2)c1cnn2c1OCCC2 (stereo not shown) [XC]
770	25	28						C[C@@H]1COc2c(S(N)(=O)=NC(=O)Nc3c4c(cc5c3CCC5)CCC4)cnn2C1 (single isomer, unassigned) [XG]
390	3.7							NS(=O)(=NC(=O)Nc1c2c(cc3c1CCC3)CCC2)c1cnn2c1OC(CO)C2 (stereo not shown) [XL]
290	74	91	0.87					CC1(C)Cn2ncc(S(N)(=O)=NC(=O)Nc3c4c(cc5c3CCC5)CCC4)c2O1 (stereo not shown) [XB]
	4				560			CC1(CO)COc2c(S(N)(=O)=NC(=O)Nc3c4c(cc5c3CCC5)CCC4)cnn2C1 (single isomer, unassigned) [XK]
480	61	45	2					CC1(C)COc2c(S(N)(=O)=NC(=O)Nc3c4c(cc5c3CCC5)CCC4)cnn2C1 (stereo not shown) [XA]
2400	2.4							NS(=O)(=NC(=O)Nc1c2c(cc3c1CCC3)CCC2)c1cnn2c1OCC(O)C2 (stereo not shown) [XM]
700	2.4							CC1(CO)COc2c(S(N)(=O)=NC(=O)Nc3c4c(cc5c3CCC5)CCC4)cnn2C1 (single isomer, unassigned) [XJ]
3300	15	54						NS(=O)(=NC(=O)Nc1c2c(cc3c1CC3)CC2)c1cnn2c1OCC2 (stereo not shown) [XF]
1700	22							NS(=O)(=NC(=O)Nc1c2c(cc3c1CCC3)CCC2)c1cnn2c1OCCC2 (stereo not shown) [XD]
240	90	39						CC1(C)Cn2ncc(S(N)(=O)=NC(=O)Nc3c4c(cc5c3CC5)CCC4)c2O1 (stereo not shown) [XI]
520	63	126						CC1(C)COc2c(S(N)(=O)=NC(=O)Nc3c4c(cc5c3CC5)CC4)cnn2C1 (stereo not shown) [XE]
